Results on seven compounds are retold here after paper PMC6270864, “Identification of Two Novel α1-AR Agonists Using a High-Throughput Screening Model” (Molecules, 2014).

Series [1] has as its target T1, human α1A-adrenoceptor (ADRA1A) expressed in HEK293 cells (Homo sapiens, UniProt P35348).
T1 construct: eGFP; host or cells: HEK293 (transient, Lipofectamine 2000)
T1 sequence (P35348 1-466): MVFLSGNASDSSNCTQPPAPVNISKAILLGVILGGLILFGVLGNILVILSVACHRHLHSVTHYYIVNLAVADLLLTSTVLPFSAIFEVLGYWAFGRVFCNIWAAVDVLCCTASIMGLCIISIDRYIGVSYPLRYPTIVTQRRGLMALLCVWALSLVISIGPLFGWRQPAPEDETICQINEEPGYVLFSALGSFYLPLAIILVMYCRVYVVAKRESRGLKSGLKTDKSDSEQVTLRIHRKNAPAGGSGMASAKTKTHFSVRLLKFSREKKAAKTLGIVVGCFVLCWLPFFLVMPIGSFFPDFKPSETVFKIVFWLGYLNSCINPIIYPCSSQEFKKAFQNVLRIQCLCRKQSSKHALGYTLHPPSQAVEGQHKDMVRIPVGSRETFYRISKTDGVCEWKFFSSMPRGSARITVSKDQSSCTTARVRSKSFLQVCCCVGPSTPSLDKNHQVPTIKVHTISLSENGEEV
Nature of the series: Dual-luciferase CRE reporter HTS assay, inhibition of PE-induced CRE activation (RIP). The class given is cell-based. The following applies: relative inhibitory potency = (RLU PE alone − RLU PE+antagonist)/RLU PE alone. As to the method:
(§1) Furthermore, the relative inhibitory potency (RIP) could be used to improve the readability of the results. Which was determined relative to that of PE-induced group ([…]), and calculated using the following formula [15]: RIP = (RLUPE alone − RLUPE+antagonist)/RLUPE alone(1)
(§2) HEK293 cells were plated at a density of 10^5 […] in 96-well plates in 100 μL of DMEM basic medium containing 10% fetal bovine serum, 100 U/mL penicillin, and 0.1 mg/mL streptomycin. After overnight incubation, human ADRA1-expression vectors, namely, ADRA1A, ADRA1B, and ADRA1D, were co-transfected with reporter vectors (CRE, SRE, AP1, NFAT, and NF-кB) and pGL4.74 [hRluc/TK] (included as a control for transfection efficiency) using Lipofectamine 2000 transfection reagent (Invitrogen Life Technologies, Carlsbad, CA, USA). The medium was removed after 4 h and replaced with high-glucose DMEM for 18 h. Cells were then treated with agonists (at concentrations of 0.01–20 μM) and incubated for 8 h.
(§3) Firefly and Renilla luciferase activities, which are indicated as RLUs, were determined using Dual-Glo luciferase assay kits (Promega) according to the manufacturer’s instructions. RLUs were measured using a luminometer (GloMaxTM 96-Microplate Luminometer, Promega) and are reported as the mean ± SEM of three individual experiments. For agonists, fold of induction = RLUinduced/RLUuninduced. For antagonists, % of control = 100 × RLU (agonist + antagonist)/RLU(agonist alone). All RLUs were normalized against firefly RLUs/Renilla RLUs. […] The pKB of the antagonist was calculated by plotting log (dose ratio–1) against the antagonist dose (μM) and subjecting the data to Schild regression, where the intercept of the x-axis represents the pKB.

Series [2] addresses T2, human α1B-adrenoceptor (ADRA1B) expressed in HEK293 cells (Homo sapiens, UniProt P35368).
T2 construct: eGFP; host or cells: HEK293 (transient, Lipofectamine 2000)
T2 sequence (P35368 1-520): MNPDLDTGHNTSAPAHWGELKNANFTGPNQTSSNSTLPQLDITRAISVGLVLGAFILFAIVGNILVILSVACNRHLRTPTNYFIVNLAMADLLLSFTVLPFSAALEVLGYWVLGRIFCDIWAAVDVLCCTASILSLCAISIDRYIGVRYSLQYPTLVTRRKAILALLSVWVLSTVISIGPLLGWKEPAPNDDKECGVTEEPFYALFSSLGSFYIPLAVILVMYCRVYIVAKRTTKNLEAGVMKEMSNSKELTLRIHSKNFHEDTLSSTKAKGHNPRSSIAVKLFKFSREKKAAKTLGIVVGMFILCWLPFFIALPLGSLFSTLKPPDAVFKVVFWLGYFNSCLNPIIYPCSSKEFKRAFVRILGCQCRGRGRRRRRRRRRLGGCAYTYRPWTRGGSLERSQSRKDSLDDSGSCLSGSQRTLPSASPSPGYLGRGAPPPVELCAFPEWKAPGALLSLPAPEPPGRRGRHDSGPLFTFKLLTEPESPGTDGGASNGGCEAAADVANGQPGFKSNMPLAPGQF
The description is as above. To be noted: relative inhibitory potency = (RLU PE alone − RLU PE+antagonist)/RLU PE alone. The class given is cell-based. The procedure: as §1, §2, §3

Series [3] concerns the target T3, human α1D-adrenoceptor (ADRA1D) expressed in HEK293 cells (Homo sapiens, UniProt P25100).
T3 construct: eGFP; host or cells: HEK293 (transient, Lipofectamine 2000)
T3 sequence (P25100 1-572): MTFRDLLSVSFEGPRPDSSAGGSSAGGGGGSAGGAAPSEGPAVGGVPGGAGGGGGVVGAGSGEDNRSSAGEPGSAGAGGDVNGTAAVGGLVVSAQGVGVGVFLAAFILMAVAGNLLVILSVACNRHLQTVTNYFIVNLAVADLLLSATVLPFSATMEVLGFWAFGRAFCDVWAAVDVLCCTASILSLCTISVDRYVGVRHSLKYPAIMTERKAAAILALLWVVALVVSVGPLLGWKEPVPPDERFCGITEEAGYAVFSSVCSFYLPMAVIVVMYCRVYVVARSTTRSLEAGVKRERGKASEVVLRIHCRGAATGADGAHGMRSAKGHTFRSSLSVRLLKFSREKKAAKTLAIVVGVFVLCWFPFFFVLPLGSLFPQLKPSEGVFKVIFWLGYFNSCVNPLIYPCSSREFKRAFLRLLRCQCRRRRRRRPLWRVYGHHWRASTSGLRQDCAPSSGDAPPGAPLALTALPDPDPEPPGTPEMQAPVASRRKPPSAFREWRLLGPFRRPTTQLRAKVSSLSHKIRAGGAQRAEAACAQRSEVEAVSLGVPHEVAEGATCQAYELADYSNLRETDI
The description is as above. Format: cell-based. The following applies: relative inhibitory potency = (RLU PE alone − RLU PE+antagonist)/RLU PE alone. As to the method: as §1, §2, §3

Series [4] concerns the target T2, human α1B-adrenoceptor (ADRA1B) expressed in HEK293 cells. Nature of the series: Dual-luciferase CRE reporter HTS assay, agonist mode. The following applies: HEK293, 8 h, read-out: EC50 α1B (agonistic activity). The class given is cell-based. As to the method: as §2, §3
Series [5] concerns the target T3, human α1D-adrenoceptor (ADRA1D) expressed in HEK293 cells. The series is described as above. The class given is cell-based. The following applies: HEK293, 8 h, read-out: EC50 α1D (agonistic activity). As to the method:
as §2, §3

The test system of series [6] is DU145 human prostate cancer cell line. The series can be described thus: CCK-8 assay, cytotoxic / anti-proliferative activity. The class given is cell-based. The following applies: DU-145, CCK-8, 24 h exposure, mean ± SD, three experiments. The procedure:
(§4) Cell proliferation was measured with the Cell Counting Kit-8 (CCK-8) assay kit (Dojindo Corp., Kumamoto, Japan). Cells were harvested during logarithmic growth phase and seeded in 96-well plates at a density of 1 × 10^5 cells/mL, and cultured at 37 °C in a humidified incubator (5% CO2) for 24 h, followed by exposure to various concentrations of compounds tested for 24 h. Subsequently 10 μL of CCK-8 (Dojindo) was added to each well, the cells were then incubated for an additional 1 h at 37 °C to convert WST-8 into formazan. Cell growth inhibition was determined by measuring the absorbance (Abs) at λ = 450 nm using amicroplate reader. Three independent experiments were performed. Cell growth inhibition was calculated according to the following equation: Growth inhibition = (1 − OD of treated cells/OD of control cells) × 100% (2)
(§5) The half maximal inhibitory concentrations (IC50) were obtained from liner regression analysis of the concentration-response curves plotted for each tested compound.
In general terms: Tetrazolium dyes change colour on reduction, which living cells bring about.

Series [7] has as its system LNCaP human prostate cancer cell line. The description is as above. The class given is cell-based. To be noted: CCK-8, 24 h exposure, mean ± SD, three experiments. As to the method: as §4, §5
Series [8] concerns PC-3 human prostate cancer cell line. The description is as above. Format: cell-based. The following applies: CCK-8, 24 h exposure, mean ± SD, three experiments. As to the method: as §4, §5
The subject of series [9] is RWPE-1 human prostate epithelial cell line. The description is as above. Format: cell-based. The following applies: for cytotoxic effects on human epithelial prostate normal cells RWPE-1: CCK-8; for IC50: Homo sapiens, RWPE-1, CCK-8, 24 h exposure, mean ± SD, three experiments. As to the method: as §4, §5
Series [10] deals with α1-ARs (α1A, α1B, and α1D). The series can be described thus: Dual-luciferase CRE reporter HTS assay, agonist mode, summary over subtypes. Format: cell-based, human. The following applies: for EC50: range over the three subtypes and both compounds, read-out: EC50, agonistic activities on α1-ARs (α1A, α1B, and α1D). As to the method:
as §2, §3

The test system of series [11] is human prostate cancer cell lines (PC-3, LNCaP and DU145). The series can be described thus: CCK-8 assay, summary over tested cancer cell lines. Format: cell-based. The following applies: range over PC-3, LNCaP, DU145 and both compounds, read-out: IC50, cytotoxic activities against tested cancer cell lines. The procedure:
as §4, §5

For series [12], the target named is T1, human α1A-adrenoceptor (ADRA1A) expressed in HEK293 cells. The series can be described thus: Dual-luciferase CRE reporter HTS assay, agonist mode. The class given is cell-based. The following applies: HEK293, 8 h, read-out: EC50 α1A (agonistic activity). The procedure:
as §2, §3

Another series concerns α1-ARs (α1A, α1B, α1D). To be noted: α1-AR subtype selectivity, cited from earlier work.

The structures appear in SMILES notation.

Take `COc1ccccc1N1CCN(CCCNc2c(C)c(=O)n(C)c(=O)n2C)CC1` [5-Methylurapidil, 5-methylurapidil]: the “RIP Values (Mean ± S.E.M, n = 4) α1A” value in [1] was 0.83 ± 0.03. For the same compound, in series [2], the “RIP Values (Mean ± S.E.M, n = 4) α1B” value was 0.63 ± 0.07. Also, the “RIP Values (Mean ± S.E.M, n = 4) α1D” value in [3] came out at 0.51 ± 0.09.
Regarding `Cc1ccc(S(=O)(=O)OCCc2ccc(CN3C(=O)c4ccccc4C3=O)cc2)cc1` [CHE3], the EC50 is 42.7 µM in [4], 47.2 µM in series [5] and 25.3 to 47.2 µM in series [10]. For the same compound, the IC50 was 11.1 ± 1.07 µM in series [6]; 47 ± 1.24 µM in [7]; 91.3 ± 1.13 µM in series [8]; 30.7 ± 0.66 µM in [9]; 11.1 to 91.3 µM in series [11]. Further, the “cytotoxic effects on human epithelial prostate normal cells RWPE-1” value in [9] is “exhibited cytotoxic effects”. Moreover, the “subtype selectivity in the HTS assay” value in series [10] (α1A, α1B, α1D) was “did not display significant subtype selectivity”.
For the compound `Cc1ccc(S(=O)(=O)OCCc2ccc(COc3ccc4c(c3)OCO4)cc2)cc1` [CHK3], the EC50 is 42.5 µM in series [12], 35.2 µM in [4], 34.3 µM in series [5] and 25.3 to 47.2 µM in series [10]. Also, the IC50 is 39.1 ± 0.81 µM in [6]; 51.5 ± 1.08 µM in [7]; 55.3 ± 1.09 µM in series [8]; 31.7 ± 0.61 µM in series [9]; 11.1 to 91.3 µM in series [11]. Further, the “cytotoxic effects on human epithelial prostate normal cells RWPE-1” value in [9] was “exhibited cytotoxic effects”.
As for `COc1cc2nc(N3CCN(C(=O)OCc4ccccc4)[C@H](C(=O)NC(C)(C)C)C3)nc(N)c2cc1OC` [Compound L-765314], the “RIP Values (Mean ± S.E.M, n = 4) α1A” value in [1] is listed as 0.53 ± 0.08. Besides, the “RIP Values (Mean ± S.E.M, n = 4) α1B” value in series [2] was found to be 0.86 ± 0.01. For the same compound, the “RIP Values (Mean ± S.E.M, n = 4) α1D” value in series [3] came to 0.30 ± 0.11.
For `COc1ccccc1N1CCN(CC(O)COc2cccc3ccccc23)CC1` (stereo not drawn) [Naftopidil, naftopidil, reference compound], in series [1], the “RIP Values (Mean ± S.E.M, n = 4) α1A” value is on record as 0.79 ± 0.09. For the same compound, the “RIP Values (Mean ± S.E.M, n = 4) α1B” value in series [2] turned out to be 0.77 ± 0.02. Besides, in series [3], the “RIP Values (Mean ± S.E.M, n = 4) α1D” value was 0.93 ± 0.01. Also, the half-maximal inhibitory concentration (IC50) is 34.58 ± 0.31 µM in [6], 22.4 ± 0.61 µM in series [7], 42.1 ± 0.79 µM in series [8] and 52 ± 1.51 µM in series [9].
In the case of `CNC[C@H](O)c1cccc(O)c1` [Phenylephrine, phenylephrine, reference compound], the EC50 in series [5] was 2.68 µM.
As for `COc1cc2nc(N3CCN(C(=O)C4CCCO4)CC3)nc(N)c2cc1OC` (stereo not drawn) [Terazosin, terazosin], the “RIP Values (Mean ± S.E.M, n = 4) α1A” value in series [1] is recorded as 0.89 ± 0.05. The “RIP Values (Mean ± S.E.M, n = 4) α1B” value in [2] worked out at 0.91 ± 0.02. Besides, the “RIP Values (Mean ± S.E.M, n = 4) α1D” value in series [3] worked out at 0.49 ± 0.02. Besides, in the series with α1-ARs (α1A, α1B, α1D), the “Reported Selectivity” value was “Nonselective [17]”. Moreover, the “Reported Selectivity (Table S1)” value with α1-ARs (α1A, α1B, α1D) (ref 2 (supplement)) is “Nonselective”.

For orientation: EC50 means the concentration giving half of the maximal effect. A word on the IC50: it is the midpoint of a concentration-inhibition curve.
